Test results taken from US6770644B1, “Hydroxamic acid derivatives, process for the production thereof and drug containing the same as the active ingredient” (Ono Pharmaceuticals Co., Ltd., priority 1999, dated 2004).

How the values were obtained:
[1] = test system: IL-6 production from human synovial cells; experiment: Inhibitory activity on IL-6 production from human synovial cells (IL-1β stimulated, ELISA); assay type: cell-based; details: Synovial cell, synovial cells from rheumatoid arthritis patients, IL-1β stimulation, 24 hours, read-out: 50% inhibitory concentration (IC50) on IL-6 production
Method: (2) The Measurement of an Inhibitory Activity on IL-6 Production from Human Synovial Cells
3.0×10^3 of synovial cells from rheumatoid arthritis patients were suspended in 200 μL of DMEM containing 10% FBS and incubated for a day and night in 96 well-microplate, followed by the incubation for 5 hours in serum-free DMEM. 20 μL of the test compound dissolved in DMSO at various concentrations and 80 μL of interleukin-1β (IL-1β (Genzyme Co., cat. No. 80-3688-01)) dissolved in DMEM containing 2.5% fetal bovine serum at the concentration of 5 ng/mL were added thereto. After the incubation for 24 hours, the supernatant (100 μL) was collected to measure the amount of IL-6 being produced using ELISA (R&D Systems Co., cat. No. D6050). Then the inhibitory activity of the test compound was calculated and the 50% inhibitory concentration (IC50) was determined.

[2] = test system: IL-6 production from A549 cells; experiment: Inhibitory activity on IL-6 production from A549 cells (TNF-α stimulated, ELISA); assay type: cell-based; details: A549 cells (human lung epithelial cell line), TNF-α stimulation, 24 hours, read-out: 50% inhibitory concentration (IC50) on IL-6 production
Method: (1) The Measurement of an Inhibitory Activity on IL-6 Production from A549 Cells
1.5×10^4 of A549 cells (human lung epithelial cell line) were suspended in 100 μL of Dulbecco's Modified Eagle Medium (DMEM) containing 0.5% fetal bovine serum (abbreviated as FBS) and incubated for a day and night in 96 well-microplate. 20 μL of the test compound dissolved in dimethylsulfoxide (DMSO) at various concentrations and 80 μL of tumor necrosis factor-α (TNF-α (Genzyme Co., cat. No. TNF-H)) dissolved in serum-free DMEM at the concentration of 12.5 ng/mL were added thereto. After the incubation for 24 hours, the supernatant (100 μL) was collected to measure the amount of IL-6 being produced using enzyme linked immuno […] assay (ELISA) (R&D Systems Co., cat. No. D6050). Then the inhibitory activity of the test compound was calculated and the 50% inhibitory concentration (IC50) was determined.

IC50 [1]: 0.041 µM | IC50 [2]: 0.052 µM
SMILES: O=C(CCCC[C@@H](O)c1ccc(-c2ccc(Cl)cc2)cc1)NO [example 3]
